Assay: Human HepG2 cell viability assay in 384 well format
Format: toxicity, cell-based
Set-up: dose 125 nL, time 70.5 hour; cytotoxicity at 70.5 h: concentration not given beside the values
Details: HepG2 cells, read-out: Inhibition

SMILES | cytotoxicity at 70.5 h [%]
CN(C)C(=O)N1CCN(C(=O)c2ccn3ccnc3c2)CC1 | -3.58
Cc1ccc(N(C)C2CCCN(C(=O)Nc3ccc(F)cc3F)C2)cc1 (configuration not stated) | -2.7
COCCN1CCN(CCCc2nnnn2-c2ccccc2)CC1 | -14.2
Cc1ccc(C(=O)Nc2ccc(N3CCCC3)cn2)cc1F | 19.7
c1cnc(N2CCN(Cc3nnnn3C3CC3)CC2)nc1 | -16.2
CCCNC(=O)CN1CCOC(c2ccc(Br)cc2)C1 (configuration not stated) | -6.67
CNC(=O)NC(=O)CCN1CCOC(c2ccc(Br)cc2)C1 (configuration not stated) | -7.41
CN(C)S(=O)(=O)c1ccc(CN2CCC(C(N)=O)CC2)o1 | -2.97
CC(=O)N1CCN(C(=O)NCCCc2cn[nH]c2C)CC1 | -14.4
Cc1n[nH]cc1CNCC(c1cccc(F)c1)N(C)C (configuration not stated) | -1.43
Cn1nccc1C(=O)N1C[C@@H]2CN(S(C)(=O)=O)CCO[C@@H]2C1 | -3.72
O=C1CCCN1Cc1nnc2n1CCCN(C(=O)c1ccco1)C2 | 22.7
CO[C@H]1CC[C@H]2[C@H]1OCCN2C(=O)c1nn(C)c2ccccc12 | -3.21
CCN1CCNC(=O)C12CCN(C(=O)c1ccccn1)CC2 | 18.3
Cc1ccc2c(n1)N(CC1CC1)CCN(Cc1cnn(C)c1)C2 | 30.4
CCO[C@H]1CC[C@H]2[C@H]1OCCN2C(=O)CC1=CCCCC1 | 24
Cc1ccc2c(n1)N(C)CCN(Cc1cnn(C)c1)C2 | -2.39
COCCn1c2c(ccc1=O)CCN(C(=O)Cc1cccs1)CC2 | -5.4
COc1cc(N2CCC3(CC2)CN(S(C)(=O)=O)c2ccccc23)ncn1 | -2.83
COCCn1c2c(ccc1=O)CCN(C(=O)Cc1ccsc1)CC2 | 2.04
O=C(C1CC(F)(F)C1)N1C[C@@H]2CN(Cc3ccoc3)CCO[C@@H]2C1 | -3.45
CS(=O)(=O)N1CCO[C@@H]2CN(C(=O)C3CC(F)(F)C3)C[C@@H]2C1 | -3.63

SMILES | cytotoxicity at 70.5 h [%]
CN1[C@H](CN2CCCC2)C[C@@H]2CN(C(=O)c3cnccn3)CC[C@@H]21 | -4.55
Cc1occc1C(=O)N1C[C@@H]2CCCO[C@@H]2[C@H](NS(C)(=O)=O)C1 | -1.97
O=C(CC1CC1)N[C@@H]1CN(C(=O)c2ccsc2)C[C@@H]2CCCO[C@@H]21 | -1.55
Cc1ccc(N2CCC3(CCN(Cc4csc(C)n4)C3=O)C2)nn1 (configuration not stated) | -3.25
COc1cc(N2CCC3(CCN(Cc4cccnc4)C3=O)C2)ncn1 (configuration not stated) | -4.34
Cn1nc(CNc2ncccn2)c2c1CN(c1cnccn1)CC2 | -8.13
O=C(c1ccco1)N1CCO[C@@H]2CNC[C@@H]21 | -6.25
Cn1cc(CN2C[C@@H]3CN(C(=O)c4cccn4C)CCO[C@@H]3C2)cn1 | -2.93
CC(=O)N1CC[C@H]2N(C)CC[C@@]2(C(=O)Nc2cccnc2)CC1 | -8.43
CCOCC1CN(C(=O)c2ccoc2)Cc2cnn(C)c21 (configuration not stated) | 13.6
O=C(c1ccco1)N1Cc2cnn(CC3CC3)c2C(COCC2CC2)C1 (configuration not stated) | 15.4
Cn1ncc2c1C(COCC1CC1)CN(C(=O)c1ccoc1)C2 (configuration not stated) | 14.1
CCn1nnc2c1C(COCC(=O)N(C)C)CN(Cc1ccoc1)C2 (configuration not stated) | -0.882
O=C(c1ccsc1)N1C[C@@H]2CCN(C(=O)c3cscn3)[C@@H]2C1 | -6.91
Cn1cc(-c2cnc(-c3ccnn3C)nc2)cc1C(=O)N1CCCC1 | -4.76
O=c1ccc2c(n1CCN1CCCC1)CCN(c1ncccn1)CC2 | -4.06
CC(=O)N1CCO[C@@H]2CN(S(=O)(=O)c3ccc(F)cc3)CC[C@@H]2C1 | -6.92
c1cnc(N2CCc3onc(CN4CCOCC4)c3C2)cn1 | -9.12
COCC1COCCC12CCN(S(=O)(=O)c1ccccc1)CC2 (configuration not stated) | 0.595
CC[C@H](C)Nc1nccc(-c2cnc3sc(C)cn3c2=O)n1 | -5.35
NS(=O)(=O)NCc1cc(-c2ccc(C(F)(F)F)cc2)n[nH]1 | -5.31
N#Cc1ccc(Nc2nc3c(s2)C(=O)CN(CC2CC2)C3)cc1 | -4.09

SMILES | cytotoxicity at 70.5 h [%]
CN(C)c1ncc(-c2ccc(NC(=O)[C@@H]3CCCCN3)cc2)cn1 | -0.758
CN(C)CCN1CCN(C)c2nc(-c3ccccc3)ncc2C1=O | -9.02
c1cc(-c2c[nH]nc2C2CCCCC2)nc(N2CCCCCC2)n1 | 2.67
CNC(=O)Cc1cc2nccc(-c3c(OC)cccc3OC)n2n1 | -7.19
OC[C@H]1CCCN1c1nccc(-c2c[nH]nc2C2CCCCC2)n1 | 2.37
Cc1cn2c(=O)c(-c3ccnc(N[C@@H]4CCOC4)n3)cnc2s1 | -3.69
CC[C@H](C)[C@H](N)C(=O)Nc1nc(-c2cnc(N(C)C)nc2)cs1 | -0.629
Cc1[nH]c2ccccc2c1-c1ccnc(NCCN2CCCCC2)n1 | -3.28
CC(C)CC(=O)N1CC(=O)c2sc(NC3CCCCC3)nc2C1 | 1.17
CN1CCN(c2nccc(-c3cncnc3C3CCCCC3)n2)CC1 | -5.17
NCCSc1nccc(-c2cnc(C3CC3)nc2-c2ccco2)n1 | 21.8
OC[C@H]1CCCN1c1nccc(-c2cncnc2C2CCCCC2)n1 | -2.18
CC[C@@H](CO)Nc1nccc(-c2c[nH]c3cc(C(=O)OC)ccc23)n1 | -2.08
Cc1ncc(-c2ccnc(SCCN(C)C)n2)c(-c2ccco2)n1 | 20.1
Cc1csc2ncc(-c3ccnc(NC4CCOCC4)n3)c(=O)n12 | 0.723
Cc1ncc(-c2ccnc(N3CCC[C@@H]3CO)n2)c(-c2cccnc2)n1 | -3.34
Cc1ccc(-c2ccnc3cc(CC(=O)N4CCN(C)CC4)nn23)cc1 | 0.106
CCNc1nc(-c2cccnc2)c(-c2ccnc(N3CCCC3)n2)s1 | -6.77
CN1CCCN(c2nccc(-c3cncnc3C3CCCCC3)n2)CC1 | 20.6
COCC(=O)N1CC(=O)c2sc(Nc3ccc(F)cc3F)nc2C1 | 0.281
NC(=O)C1CCN(c2nccc(-c3c[nH]nc3C3CCCCC3)n2)CC1 | -4.42
CC(=O)N1CCC(n2ccc(-c3cnc(N4CCOCC4)nc3)n2)CC1 | -5.97

SMILES | cytotoxicity at 70.5 h [%]
CC[C@H](C)[C@H](N)C(=O)N1CC(=O)c2sc(NC3CCCCC3)nc2C1 | 3.97
COc1cc(OC)cc(-c2cc(CN)nc3ccnn23)c1 | -4.26
CN(C)C(=O)CO[C@H]1CN(Cc2ccoc2)[C@@H]2COC[C@H]12 | -5.51
CN(C)C(=O)CO[C@H]1CN(Cc2ccc3c(c2)OCO3)[C@@H]2COC[C@H]12 | -4.69
CN1CCO[C@@H]2CN(S(=O)(=O)c3ccccc3)C[C@@H]2C1 | 20.2
O=C(C1CC(F)(F)C1)N1C[C@@H]2CN(CC3CCCC3)CCO[C@@H]2C1 | 22.1
COc1ccc(C[C@H]2CN(Cc3ccoc3)CC[C@H]2OC)cc1 | -0.279
CCN1CCN(C)C(=O)C12CCN(C(=O)Cc1ccccn1)CC2 | 0.951
CO[C@@H]1CCN(Cc2ccoc2)[C@H]1Cc1ccccc1 | -5.28
O=C(O)[C@]12CCCN(C3CCOC3)C[C@H]1CN(c1nncs1)C2 (some centres not stated) | -7.95
COc1cc(N2CCC3(CCCN(Cc4ccccn4)C3)C2)ncn1 (configuration not stated) | -5.46
Cc1cnc(N2C[C@@H]3CN(C4CCOC4)CCC[C@]3(C(=O)O)C2)nc1 (some centres not stated) | -7.9
COc1cc(N2CCC3(CCN(Cc4csc(C)n4)C3)CC2)ncn1 | -5.2
COc1cc(N2CCC3(CCN(Cc4csc(C)n4)C3=O)C2)ncn1 (configuration not stated) | -7.86
Cc1cnc(C(=O)N2Cc3ncn(C)c3C(COCC(C)C)C2)cn1 (configuration not stated) | -4.87
CCN1Cc2ccccc2CC2(CCN(CC(=O)O)CC2)C1=O | 15.3
CN1Cc2ccccc2CC2(CCN(CCO)CC2)C1=O | 18
Cc1ccc(CN2CC[C@@H]3OCCN(S(C)(=O)=O)[C@H]3CC2)s1 | -3.31
CN(C)CCn1c2c(ccc1=O)CC(NC(=O)c1cnccn1)CC2 (configuration not stated) | -10.4
Cc1ccc(N2CCC3(CN(CCO)CCC3(F)F)C2)nn1 (configuration not stated) | -6.24
OCCN1CCC(F)(F)C2(CCN(c3cnccn3)C2)C1 (configuration not stated) | -5.87
COCC1CN(C(=O)c2ccoc2)Cc2cnn(CC3CCOCC3)c21 (configuration not stated) | -9.06

SMILES | cytotoxicity at 70.5 h [%]
Cc1ccc(N2CCC3(CN(Cc4cccs4)CCC3(F)F)C2)nn1 (configuration not stated) | -7.32
COCCN1CCN(S(=O)(=O)c2ccccc2)Cc2cccnc21 | -5.54
CN1CCO[C@@H]2CN(S(=O)(=O)c3cccs3)CC[C@@H]2C1 | -9.31
Cc1ccc(N2CC[C@H](OCC3CC3)[C@@H]2Cc2cccnc2)nn1 | 1.2
c1cnc(N2CCO[C@@H]3CN(Cc4ccoc4)C[C@@H]3C2)nc1 | 4.32
Cc1csc(NC(=O)[C@@H]2C[C@H]3[C@H](CCN3c3ncccn3)O2)n1 | 18.3
Cc1ccoc1C(=O)N1CC[C@H]2[C@H](C[C@@H](CN3CCCC3)N2C)C1 | 4.09
CN1CCC(N2CCC(C(=O)N(C)C)CC2)CC1 | -0.525
CN(C)C(=O)C1CCN(C2CCN(CC3CC3)CC2)CC1 | -5.51
Cn1nc(CN2CCCC2)c2c1CN(c1cnccn1)CC2 | -3.39
O=C(O)CN1CCCC2(CCN2Cc2cccc(F)c2)C1 (configuration not stated) | -1.42
CC(C)C(=O)N1CC[C@H]2N(C)CC[C@@]2(C(=O)Nc2cccnc2)CC1 | -10.9
c1ccc(CN2CCC3(CC2)CCN(c2ccccn2)C3)nc1 | -10.3
CCOCc1nn(CC2CC2)c2c1CN(Cc1cccs1)CC2 | -6.81
CCn1nnc2c1C(COCCN(C)C)CN(Cc1ccco1)C2 (configuration not stated) | 11.5
Cc1ccc(N2CCC3(CN(Cc4ccncc4)CCC3(F)F)C2)nn1 (configuration not stated) | -1.36
CN(C)CCn1c2c(ccc1=O)CCN(Cc1cnn(C)c1)CC2 | 2.16
CN(C)CCOCc1cncc2c1CCN(C1CCOC1)C2 (configuration not stated) | -4.13
CC(C)OCc1nn(C)c2c1CN(Cc1cccs1)CC2 | -2.74
